From US20100247579A1, “THERAPEUTIC AGENT FOR CANCER” (priority 2007, published 2010)
Counter-ions that a name gives are not always drawn. Like-named read-outs stand apart in the source and are kept apart here. Each block holds one compound with its values, some of them ahead of it.

What was measured:
[1] = system: lymphocytes derived from cancer patient No. PT009 expanded with OKT3 and CH-296; assay: Resistance to anticancer agents, WST-1 GI50 on cultured lymphocytes of cancer patient No. PT009; assay type: cell-based, human; conditions: Homo sapiens, Lymphocyte, day 10 of culture with OKT3 and CH-296, 20 hours with drug, read-out: GI50
Method: After that, the suspension was stained by the trypan blue staining method to calculate the viable cell count, and then subjected to each experiment.
(§1) On the other hand, the IL-2/5HRPMI was added to the control group in 50 μL/well each.
(§2) These culture plates were incubated at 37° C. for 20 hours in the presence of 5% CO2. After the incubation, WST-1 (Premix WST-1 Cell Proliferation Assay System, manufactured by Takara Bio Inc.) was added in 20 μL/well each to each well of the plate, and incubated in the presence of 5% CO2 at 37° C. for 4 hours. The plates after the incubation were centrifuged at 500×g at room temperature for 5 minutes. After the centrifugation, 100 μL of the supernatant was collected from each well, and the absorbance was measured at an absorption wavelength of 450 nm and a control wavelength of 630 nm [hereinafter referred to as the absorbance (450 nm-630 nm)] using a microplate reader (manufactured by Bio-Rad Laboratories, Inc., Model Number 680XR), and then the specific absorbance (450 nm-630 nm) was calculated according to the following formula.
(§3) Specific absorbance (450 nm-630 nm)=Absorbance of Test Cell Addition Group (450 nm-630 nm)−Absorbance of Control Group (450 nm-630 nm) Formula 2: […]

[2] = system: expanded lymphocytes derived from a human healthy donor; assay: Resistance to anticancer agents, WST-1 GI50 on cultured lymphocytes of a human healthy donor; assay type: cell-based; conditions: Homo sapiens, Lymphocyte
Method: as §1, §2, §3
Here, a group where only OKT3 was immobilized to the culture equipment in the expansion of the lymphocytes was also set.
However, in the case of paclitaxel, a human AB type serum was used as a solvent for dilution, and for other drugs, 5HRPMI was used for dilution.

[3] = system: X-ray irradiated PBMCs derived from an allogeneic donor (stimulator cells); assay: Allogeneic mixed lymphocyte reaction (MLR) using cultured lymphocytes (expansion fold); assay type: cell-based, human
[4] = system: lymphocytes expanded from PBMC of cancer patient; assay: Flow cytometry analysis of naive T-like cell phenotypes in expanded lymphocytes; assay type: cell-based, human; conditions: Example 5
Method: The cells on days 10 and 14 of culture, prepared in item (3) of Example 2, were washed with DPBS containing 1% bovine serum albumin (BSA, manufactured by Sigma) (hereinafter referred to as 1% BSA/DPBS) or DPBS, and the cells were suspended in 1% BSA/DPBS, then FITC labeled mouse IgG1/RD1 labeled mouse IgG1/PC5 labeled mouse IgG1 (manufactured by Beckman Coulter Inc.) were added thereto as a negative control. Similarly, cells added with RD1 labeled mouse anti-human CD45RA antibody (manufactured by Beckman Coulter Inc.)/FITC labeled mouse anti-human CCR7 antibody (manufactured by R&D Systems), cells added with RD1 labeled mouse anti-human CD45RA antibody/FITC labeled mouse anti-human CD28 antibody (manufactured by eBioscience, Inc.)/PC5 labeled mouse anti-human CD27 antibody (manufactured by Beckman Coulter Inc.), and cells added with RD1 labeled mouse anti-human CD45RA antibody/FITC labeled mouse anti-human CCR7 antibody/PC5 labeled mouse anti-human CD62L antibody (manufactured by Beckman Coulter Inc.) were prepared. After addition of each antibody, incubation was carried out on ice for 30 minutes. After the incubation, the cells were washed with DPBS containing 0.1% BSA (hereinafter referred to as 0.1% BSA/DPBS), and suspended again in DPBS. The ratio of CCR7^+CD45RA^+ cells, CD27^+CD45RA^+ cells, CD28^+CD45RA^+ cells, CD62L^+CD45RA^+ cells, and CCR7^+CD62L^+CD45RA^+ cells of each cell population was calculated. […]
With respect to the cells on days 10 and 14 of culture, prepared in item (2) of Example 5, analysis of CCR7^+CD45RA^+ cells, CD62L^+CD45RA^+ cells, and CCR7^+CD62L^+CD45RA^+ cells was performed similarly to the method described in item (4) of Example 2.

[5] = system: PHA blast cells from non-autologous healthy donor; assay: Non-autologous specific cytotoxicity after allogeneic MLR (Calcein-AM); assay type: cell-based, human; conditions: E/T ratio 90
Method: The PBMCs derived from a non-autologous healthy donor, prepared in item (2) of Example 6, were adjusted with 5HRPMI to 1×10^6 cells/mL, and seeded to a 6-well cell culture plate (manufactured by Corning Inc.) in a volume of 3 mL each. IL-2 was added thereto to a final concentration of 100 U/mL and phytohemaaglutinin (manufactured by Sigma, hereinafter referred to as PHA) was added thereto to a final concentration of 2 μg/mL, and the cells were cultured at 37° C. in 5% CO2. On day 4 of culture, 12 mL of 5HRPMI was added to the cell culture and IL-2 was added thereto to a final concentration of 100 U/mL. Thereafter, the cell culture was dispensed into a 6-well cell culture plate so as to have a volume of 5 mL/well. The culture was continued until day 7 of culture, thereby preparing PHA blast (blastogenic) cells.
Using the cells on day 7 of culture prepared in item (3) of Example 6, non-autologous specific cytotoxicity was assayed in the same manner as in item (5) of Example 2, except that the PHA blast cells which had been subjected to blastogenic cells in item (4) of Example 6 were used as the target cells which were incubated at 37° C. for 2 hours after addition of calcein-AM. These calcein-labeled target cells were mixed with a 30-fold amount of K562 cells, and the cytotoxicity was assayed using these target cells for determining the cytotoxicity. […]

PBMC of cancer patient = assay: Expansion of lymphocytes from PBMC of cancer patients in plate/flask, OKT3 alone versus OKT3 and CH-296; assay type: cell-based, human
Method: The OKT3 and the CH-296 were immobilized to the culture equipment used in the following experiment. That is, an ACD-A solution containing OKT3 (final concentration: 5 μg/mL) and CH-296 (final concentration: 25 μg/mL) was added to a 12-well cell culture plate (manufactured by Corning Inc.) in a volume of 0.45 mL/well each, and incubated at 37° C. for 5 hours in 5% CO2. On this occasion, a group wherein only OKT3 was immobilized was set. The ACD-A solution containing the OKT3 or the OKT3 and the CH-296 was removed from the culture equipment by aspiration just before use, washed twice with DPBS and once with the RPMI 1640 medium, and then subjected to each experiment.
The PBMC of 0.53×10^6 cells derived from the cancer patient and separated in item (1) of Example 2 was suspended in 5.3 mL of 0.6% plasma containing KBM551 or 0.2% HSA/GT-T503, and added to the plate immobilized with the OKT3 or the OKT3 and the CH-296 as prepared in item (1) of Example 5. IL-2 was added thereto so as to have a final concentration of 200 U/mL and the mixture was incubated at 37° C. under 5% CO2 (on day 0 of culture). On day 4 of culture, the cell solution in each well was suspended, and a part of the suspension was diluted 8.3-fold using 0.6% plasma-containing KBM551 or 0.2% HSA/GT-T503. Then, 7.8 mL of the diluted solution was transferred to a 25 cm^2-cell culture flask (manufactured by Corning Inc.) to which nothing was immobilized, and added with IL-2 to each final concentration of 200 U/mL. The culture was continued, and on day 7, a plasma free KBM551 or a 0.2% HSA/GT-T503 was added to the culture solution in each group in an equivalent amount to dilute two-fold, and then added with IL-2 so as to have each final concentration of 200 U/mL. On day 10 of culture, the cell solution in each group was diluted two-fold using a plasma free KBM551 or a 0.2% HSA/GT-T503, and 15.6 mL each of the diluted solution was transferred to a fresh standing 25 cm^2-cell culture flask to which nothing was immobilized. IL-2 was added thereto so as to have a final concentration of 200 U/mL in each group. On days 10 and 14 from the start of culture, the number of viable cells was counted by the trypan blue staining method and an expansion fold was calculated by comparing the number of counted cells with the number of cells at the start of culture.

[6] = PBMC of patient PT003, 0.2% HSA/GT-T503
[7] = PBMC of patient PT006 (breast cancer), KBM551
[8] = PBMC of patient PT008 (laryngeal cancer), KBM551
[9] = PBMC of patient PT012 (rectal cancer), KBM551

GI50 [1]: 0.2 µg/mL
Compound: CC[C@]1(O)C[C@H]2CN(CCc3c([nH]c4ccccc34)[C@@](C(=O)OC)(c3cc4c(cc3OC)N(C=O)[C@H]3[C@@](O)(C(=O)OC)[C@H](OC(C)=O)[C@]5(CC)C=CCN6CC[C@]43[C@@H]65)C2)C1 [Vincristine Sulfate, vincristine sulfate]
GI50 ([2]; healthy donor lymphocytes expanded with OKT3 + CH-296, read-out: GI50 (μg/mL) Initial Stimulation OKT3 + CH-296): 24.3 µg/mL
GI50 ([2]; healthy donor lymphocytes expanded with OKT3 alone, read-out: GI50 (μg/mL) Initial Stimulation OKT3): 4.42 µg/mL

Compound: OKT3: Anti-CD3 monoclonal antibody (OKT3), immobilized alone to the culture equipment as initial stimulation
Expansion Rate (Fold) ([3]; lymphocytes of patient PT012, 10 days of lymphocyte expansion, responder:stimulator 1:0): x3.0 Fold
Expansion Rate (Fold) ([3]; lymphocytes of patient PT012, 10 days of lymphocyte expansion, responder:stimulator 1:1): x5.3 Fold
Expansion Rate (Fold) ([3]; lymphocytes of patient PT012, 14 days of lymphocyte expansion, responder:stimulator 1:0): x1.1 Fold
Expansion Rate (Fold) ([3]; lymphocytes of patient PT012, 14 days of lymphocyte expansion, responder:stimulator 1:1): x3.7 Fold
CCR7^+CD45RA^+ (%) On Day 10 from Start of Culture [4, 6]: 13.3%
CCR7^+CD62L^+CD45RA^+ (%) On Day 10 from Start of Culture [4, 6]: 13.1%
CD62L^+CD45RA^+ (%) On Day 10 from Start of Culture [4, 6]: 52.5%
CCR7^+CD45RA^+ (%) On Day 10 from Start of Culture ([4]; PBMC of patient PT003, KBM551): 5.4%
CCR7^+CD62L^+CD45RA^+ (%) On Day 10 from Start of Culture ([4]; PBMC of patient PT003, KBM551): 5.1%
CD62L^+CD45RA^+ (%) On Day 10 from Start of Culture ([4]; PBMC of patient PT003, KBM551): 50.9%
CCR7^+CD45RA^+ (%) On Day 10 from Start of Culture ([4]; PBMC of patient PT006, KBM551): 24.9%
CCR7^+CD45RA^+ (%) On Day 14 from Start of Culture ([4]; PBMC of patient PT006, KBM551): 36.9%
CCR7^+CD62L^+CD45RA^+ (%) On Day 10 from Start of Culture ([4]; PBMC of patient PT006, KBM551): 24.6%
CCR7^+CD62L^+CD45RA^+ (%) On Day 14 from Start of Culture ([4]; PBMC of patient PT006, KBM551): 36.7%
CD62L^+CD45RA^+ (%) On Day 10 from Start of Culture ([4]; PBMC of patient PT006, KBM551): 79.2%
CD62L^+CD45RA^+ (%) On Day 14 from Start of Culture ([4]; PBMC of patient PT006, KBM551): 75.7%
CCR7^+CD45RA^+ (%) On Day 10 from Start of Culture ([4]; PBMC of patient PT008, KBM551): 4.6%
CCR7^+CD45RA^+ (%) On Day 14 from Start of Culture ([4]; PBMC of patient PT008, KBM551): 4.2%
CCR7^+CD62L^+CD45RA^+ (%) On Day 10 from Start of Culture ([4]; PBMC of patient PT008, KBM551): 4.2%
CCR7^+CD62L^+CD45RA^+ (%) On Day 14 from Start of Culture ([4]; PBMC of patient PT008, KBM551): 3.9%
CD62L^+CD45RA^+ (%) On Day 10 from Start of Culture ([4]; PBMC of patient PT008, KBM551): 53.0%
CCR7^+CD45RA^+ (%) On Day 10 from Start of Culture ([4]; PBMC of patient PT012, KBM551): 19.4%
CCR7^+CD45RA^+ (%) On Day 14 from Start of Culture ([4]; PBMC of patient PT012, KBM551): 25.0%
CCR7^+CD62L^+CD45RA^+ (%) On Day 10 from Start of Culture ([4]; PBMC of patient PT012, KBM551): 17.1%
CCR7^+CD62L^+CD45RA^+ (%) On Day 14 from Start of Culture ([4]; PBMC of patient PT012, KBM551): 23.4%
CD62L^+CD45RA^+ (%) On Day 10 from Start of Culture ([4]; PBMC of patient PT012, KBM551): 56.0%
CD62L^+CD45RA^+ (%) On Day 14 from Start of Culture ([4]; PBMC of patient PT012, KBM551): 43.4%
Cytotoxicity (%) ([5]; lymphocytes of patient PT012, 10 days of lymphocyte expansion): 15.2%
Cytotoxicity (%) ([5]; lymphocytes of patient PT012, 14 days of lymphocyte expansion): 27.6%
Expansion Fold (Fold) On Day 10 from Start of Culture (PBMC of cancer patient; PBMC of patient PT003 (breast cancer), 0.2% HSA/GT-T503): ×200 Fold
Expansion Fold (Fold) On Day 10 from Start of Culture (PBMC of cancer patient; PBMC of patient PT003 (breast cancer), KBM551): ×193 Fold
Expansion Fold (Fold) On Day 10 from Start of Culture (PBMC of cancer patient; [7]): ×202 Fold
Expansion Fold (Fold) On Day 14 from Start of Culture (PBMC of cancer patient; [7]): ×382 Fold
Expansion Fold (Fold) On Day 10 from Start of Culture (PBMC of cancer patient; [8]): ×119 Fold
Expansion Fold (Fold) On Day 14 from Start of Culture (PBMC of cancer patient; [8]): ×292 Fold
Expansion Fold (Fold) On Day 10 from Start of Culture (PBMC of cancer patient; [9]): ×281 Fold
Expansion Fold (Fold) On Day 14 from Start of Culture (PBMC of cancer patient; [9]): ×723 Fold
